We go through eleven compounds from PubChem BioAssay (NCI).

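Results reflect a 48-hour exposure of cells in 96-well plates to compound at five concentrations. The concentration for 50% growth inhibition is given as GI50. The concentration for full growth arrest is given as TGI.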 A value given as a limit tells only on which side of the number the result lay.

Common to all, as to assay: NCI anticancer screen, dose series, 48 h
Assay [1] has as its system SNB-19 CNS.
The subject of assay [2] is SF-268 CNS.
Assay [3] relates to COLO 205 colon.
Assay [4] concerns U251 CNS.
For assay [5], the system named is SF-295 CNS.
For assay [6], the system named is MOLT-4 leukemia.
In assay [7] the test system is UACC-62 melanoma.
In assay [8] the test system is A549 NSCLC.
Assay [9] concerns IGROV1 ovarian.
The subject of assay [10] is SK-MEL-2 melanoma.

For the compound `[Au+].c1c[n-]cn1.c1ccc([PH+](c2ccccc2)c2ccccc2)cc1`, the GI50 in [1] is 7.28 µM; in [2] it was 3.32 µM; in assay [3] it was 1.99 µM; in [4], 3.77 µM; in [5], 11.8 µM; in [6] it was 2.07 µM. The GI50 is 5.17 µM in assay [7], 11.7 µM in [8], 2.02 µM in [9] and 2.53 µM in [10]. For the same compound, the TGI in assay [1] stood at 18 µM; in assay [2], 28.3 µM; in assay [3], 4.07 µM; in assay [4], 26.2 µM; in assay [5] it was 26.6 µM; in assay [6], 5.15 µM. Also, the TGI in assay [7] is 29.2 µM; in assay [8] it was 42.6 µM; in assay [9], 13.7 µM; in assay [10], 8.06 µM.

For the compound `Cn1cc(-c2ccc3nnc(C(F)(F)c4ccc5ncccc5c4)n3n2)cn1`, the GI50 in assay [1] is 53.4 µM; in assay [2] it was 50.7 µM; in assay [3] it was 59.6 µM; in assay [4], 58.4 µM; in assay [5], 3.82 µM; in [6] it was 52.5 µM. In addition, the GI50 in assay [7] was 66.1 µM; in [8] it was 60.2 µM; in assay [9] it was 53.8 µM; in assay [10] it was 50.6 µM. In addition, the TGI in assay [1], in assay [2], in assay [3], in [4], in assay [5] and in assay [6] was more than 100 µM each time. Besides, the TGI in [7], in assay [8], in assay [9] and in assay [10] was more than 100 µM in each case.

Take `O=C1NC(Cc2ccccc2)C(=O)N2CCCC12` (stereo not given): the TGI in [1], in [2], in assay [3], in [4], in [5] and in assay [6] was more than 100 µM in each case. Moreover, the TGI in [7], in assay [8], in assay [9] and in assay [10] was more than 100 µM each time.

Turning to `CSc1nc(SC)c2c(C)cn(C3OC(C)C(O)C(O)C3O)c2n1` (stereo not given), the TGI in assay [1], in assay [2], in assay [3], in [4], in assay [5] and in [6] was more than 100 µM each time. Moreover, the TGI in [7], in [8], in assay [9] and in assay [10] was more than 100 µM in each case.

Take `COc1ccc2c(c1)C(=O)c1c-2c(OCCN2CCCCC2)nc2ccc(OC)cc12`: the GI50 is 0.66 µM in assay [1]; 0.461 µM in assay [2]; 0.723 µM in [3]; 0.513 µM in assay [4]; 0.529 µM in assay [5]; 0.305 µM in [6]. The GI50 was 1.35 µM in assay [7], 0.674 µM in assay [8], 0.708 µM in assay [9] and 12.4 µM in assay [10]. The TGI is 15.1 µM in assay [1]; 9.46 µM in assay [2]; 11.1 µM in [3]; 1.79 µM in assay [4]; 15.2 µM in assay [5]; 1.81 µM in [6]. In addition, the TGI came to 6.3 µM in assay [7], 2.16 µM in [8], 6.58 µM in assay [9] and 28.6 µM in assay [10].

Regarding `O=C(O)c1c[nH]c2c(ccc3[nH]cc(C(=O)O)c(=O)c32)c1=O`, the TGI in assay [1], in [2], in [3], in [4], in assay [5] and in [6] was more than 100 µM in each case. The TGI in [7], in [8], in [9] and in assay [10] was more than 100 µM throughout.

As to `N/C(=N/N=C/c1cccc(F)c1)NO`, the TGI in assay [1] is more than 100 µM; in assay [2] it was 68.7 µM; in [3] it was more than 100 µM; in assay [4], more than 100 µM; in assay [5], more than 100 µM; in [6], more than 100 µM. The TGI in [7] was 41 µM; in [8], 98.7 µM; in assay [9] it was more than 100 µM; in assay [10], more than 100 µM.

For the compound `C=C(C)C1CCC2(C(=O)O)CCC3(C)C(CCC4C5(C)CCC(O)C(C)(C)C5CCC43C)C12` (stereo not given), the TGI amounted to 39.7 µM in [1]; 28.7 µM in [2]; 16.6 µM in assay [3]; 22 µM in assay [4]; 23.6 µM in assay [5]; 26.5 µM in assay [6]. Moreover, the TGI in assay [7] is 32.2 µM; in [8], 24.1 µM; in assay [9], 28.7 µM; in [10] it was 32.2 µM.

As to `Cc1cc(Cl)ccc1Nc1nc2c(s1)C(=O)c1ccccc1C2=O`, the TGI in [1] was 16.3 µM; in assay [2], 11.3 µM; in assay [3], 16.8 µM; in assay [4], 12.7 µM; in assay [5] it was 24.2 µM; in assay [6] it was more than 25.4 µM. Besides, the TGI in assay [7] came to 7.41 µM; in [8], 21.4 µM; in assay [9], 11.9 µM; in [10] it was 22.7 µM.

`O=C(c1ccccc1)c1c2n(c3c1cc(O)c1ccccc13)CCN2`: the GI50 in assay [1] is 1.85 µM; in [2], 3.19 µM; in assay [3], 1.8 µM; in assay [4], 1.78 µM; in [5], 7.11 µM; in assay [6], 2.06 µM. Moreover, the GI50 is 5.15 µM in assay [7], 14.2 µM in [8], 2.19 µM in [9] and 3.02 µM in assay [10]. Also, the TGI stood at 3.46 µM in assay [1]; 9.85 µM in [2]; 3.31 µM in assay [3]; 3.4 µM in [4]; 20.8 µM in assay [5]; 4.45 µM in assay [6]. Moreover, the TGI in assay [7] stood at 17.4 µM; in assay [8], 35.5 µM; in [9], 4.84 µM; in [10], 8.55 µM.

Regarding `C[C@H]1CCC2C(CN3CCCCC3)C(=O)OC2[C@]2(C)C(=O)CC(N3CCCCC3)C12O` (stereo not given in full), the TGI was 73 µM in assay [1]; 44.8 µM in assay [2]; 18.6 µM in [3]; 24.5 µM in [4]; 22.3 µM in assay [5]; 10.9 µM in assay [6]. In addition, the TGI in assay [7] was 5.92 µM; in [8], 90.8 µM; in assay [9], 84.1 µM; in assay [10] it was 90.4 µM.
